From ChEMBL document CHEMBL1201862, “PubChem BioAssay data set” (2004)
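Tested at 5 concentrations; 48 h exposure; 96-well plates; endpoints linearly interpolated, else capped at highest concentration. GI50: concentration for 50% inhibition of growth.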 The source made the active and inactive calls. No stated cut-off is given here; in the data, active = GI50 up to about 1.1 µM and inactive = higher.

Assays:
Test in all cases: growth of human tumour cells (NCI), 48 h
HT-29 = system: HT-29
KM12 = system: KM12
SW-620 = system: SW-620
TK-10 = system: TK-10
LOX IMVI = system: LOX IMVI
NCI-H522 = system: NCI-H522
DU-145 = system: DU-145
NCI-H226 = system: NCI-H226
MCF7 = system: MCF7
Malme-3M = system: Malme-3M
SK-MEL-5 = system: SK-MEL-5
SNB-75 = system: SNB-75
SN12C = system: SN12C
MDA-MB-435 = system: MDA-MB-435
PC-3 = system: PC-3
HCC 2998 = system: HCC 2998
A498 = system: A498
MDA-MB-231 = system: MDA-MB-231
UACC-257 = system: UACC-257
HCT-15 = system: HCT-15

Row | Structure (SMILES) | GI50 (HT-29) | GI50 (KM12) | GI50 (SW-620) | GI50 (TK-10) | GI50 (LOX IMVI) | GI50 (NCI-H522) | GI50 (DU-145) | GI50 (NCI-H226) | GI50 (MCF7) | GI50 (Malme-3M) | GI50 (SK-MEL-5) | GI50 (SNB-75) | GI50 (SN12C) | GI50 (MDA-MB-435) | GI50 (PC-3) | GI50 (HCC 2998) | GI50 (A498) | GI50 (MDA-MB-231) | GI50 (UACC-257) | GI50 (HCT-15) [µM]
1 | CCCCCc1c(CCCC)c(=O)[nH]c2cc(CNCC(OC)OC)ccc12 | 3.91 µM (inactive) | 11.7 µM (inactive) | 5.79 µM (inactive) | 15 µM (inactive) | 6.01 µM (inactive) | 17.6 µM (inactive) | 14.6 µM (inactive) | 20.6 µM (inactive) | 12.9 µM (inactive) | 2.83 µM (inactive) | 8.77 µM (inactive) | 15.6 µM (inactive) | 14.2 µM (inactive) | 11.4 µM (inactive) | 12.2 µM (inactive) | 3.24 µM (inactive) | 15.1 µM (inactive) | 15.2 µM (inactive) | 4.92 µM (inactive) | 9.53
2 | Cc1ccc(/N=C2/SC(c3ccc(C)cc3)(c3ccc(C)cc3)c3ccccc32)cc1 | > 100 µM (inactive) | > 100 µM (inactive) | > 100 µM (inactive) | > 100 µM (inactive) | > 100 µM (inactive) | > 100 µM (inactive) | > 100 µM (inactive) | > 100 µM (inactive) | > 100 µM (inactive) | > 100 µM (inactive) | > 100 µM (inactive) | > 100 µM (inactive) | > 100 µM (inactive) | > 100 µM (inactive) | > 100 µM (inactive) | > 100 µM (inactive) | > 100 µM (inactive) | > 100 µM (inactive) | > 100 µM (inactive) | > 100
3 | Cc1cc(CNC(=O)OCc2ccccc2)c(C)c2c1Oc1ccccc1O2 | 20.2 µM (inactive) | 43.6 µM (inactive) | > 100 µM (inactive) | 41.8 µM (inactive) | > 100 µM (inactive) | 13.9 µM (inactive) | 71 µM (inactive) | 26.5 µM (inactive) | 49.5 µM (inactive) | 75.9 µM (inactive) | > 100 µM (inactive) | 11.8 µM (inactive) | 24.3 µM (inactive) | > 100 µM (inactive) | 43.4 µM (inactive) | > 100 µM (inactive) | 23 µM (inactive) | 6.67 µM (inactive) | > 100 µM (inactive) | 97.5
4 | CSc1nc(NC2OC(COC(C)=O)C(OC(C)=O)C(OC(C)=O)C2OC(C)=O)c(/N=C\C=N/c2c(NC3OC(COC(C)=O)C(OC(C)=O)C(OC(C)=O)C3OC(C)=O)nc(SC)n(C)c2=O)c(=O)n1C (stereo not given) | > 82.2 µM (inactive) | > 100 µM (inactive) | > 100 µM (inactive) | 45.9 µM (inactive) | > 95.3 µM (inactive) | > 100 µM (inactive) | > 100 µM (inactive) | 54.1 µM (inactive) | > 100 µM (inactive) | 81.5 µM (inactive) | > 100 µM (inactive) | 12.2 µM (inactive) | > 92.9 µM (inactive) | > 100 µM (inactive) | > 100 µM (inactive) | > 100 µM (inactive) | 38.5 µM (inactive) | 49.3 µM (inactive) | > 100 µM (inactive) | > 100
5 | COC1/C=C\OC2(C)Oc3c(C)c(O)c4c(O)c(c(/C=N\OCCCc5ccccc5)c(O)c4c3C2=O)NC(=O)/C(C)=C\C=C/C(C)C(O)C(C)C(O)C(C)C(OC(C)=O)C1C (stereo not given) | 3.59 µM (inactive) | 4.47 µM (inactive) | 4.36 µM (inactive) | 3.23 µM (inactive) | 3.33 µM (inactive) | 3.54 µM (inactive) | 4.71 µM (inactive) | 2.13 µM (inactive) | 1.17 µM (inactive) | 3.54 µM (inactive) | 1.78 µM (inactive) | 2.62 µM (inactive) | 1.81 µM (inactive) | 3.25 µM (inactive) | 3.18 µM (inactive) | 11.4 µM (inactive) | 6.93 µM (inactive) | 2.25 µM (inactive) | 5.74 µM (inactive) | 3.16
6 | O=C(Nc1nc(C23CC4CC(CC(C4)C2)C3)cs1)c1cc2cc(Br)cc(Br)c2oc1=O | > 100 µM (inactive) | > 100 µM (inactive) | 43.2 µM (inactive) | > 100 µM (inactive) | > 100 µM (inactive) | > 100 µM (inactive) | 65.5 µM (inactive) | 33.2 µM (inactive) | > 100 µM (inactive) | > 100 µM (inactive) | > 100 µM (inactive) | 26.9 µM (inactive) | 31.8 µM (inactive) | 67.5 µM (inactive) | 71.1 µM (inactive) | 75.7 µM (inactive) | > 100 µM (inactive) | 52.6 µM (inactive) | > 100 µM (inactive) | > 100
